Assay results taken from patent US20230232831A1, “MONOTERPENOID AND PHENYLPROPANOID CARBONATE ESTERS AND METHODS OF THEIR MAKING AND USE AS REPELLENTS” (IOWA STATE UNIVERSITY RESEARCH FOUNDATION, INC., priority 2020, published 2023).
Entries after “also recorded” stand apart in the source; their conditions may differ.

What was measured:
Assay type in all cases: in vivo
Culex pipiens [1] = assay: Short-term spatial repellency, static air chamber; details: for short-term repellency (result in words): 1 mL of 0.5% solution on filter paper, 15-150 min
Procedure: FIG. 4 is a graph showing the repellency observed when 1 mL of a 0.5% solution of each compound was applied to a filter paper, dried for 15 minutes, and placed at the treated end of the repellency chamber. FIG. 6 is a graph showing repellency of various compounds against the mosquito species Culex pipiens observed when 1 mL of a 0.5% solution of each compound was applied to a filter paper, dried for 15 minutes, and placed at the treated end of the repellency chamber. The static air chamber used for the repellency assay has been described previously (Klimavicz et al., “Monoterpenoid Isovalerate Esters as Long-lasting Spatial Mosquito Repellents,” In Advances in the Biorational Control of Medicaland Veterinary Pests, American Chemical Society: 2018; Vol. 1289, pp 205-217; Peterson et al., “Identification of Components of Osage Orange Fruit (Maclura pomifera) and Their Repellency to German Cockroaches,” J. Essent. Oil Res. 14:233-236 (2002), which are hereby incorporated by reference in their entirety). For each assay run, a 90-mm Whatman No. 1 filter paper was treated with 1 mL acetone solution containing 0.5% w/v of a carbonate ester. The filter paper was supported upon several pins during the addition of the acetone solution to diminish wicking of the solution away from the filter paper, and the solution was added over approximately thirty seconds to allow acetone to evaporate during the addition to prevent dripping. After the addition of the solution was complete, remaining acetone was permitted to evaporate for […] before testing. A 600-mm-long clear glass cylinder with an inner diameter of 85 mm and a single hole (20 mm diameter) halfway along the side of the cylinder was used for the repellency chamber. One end of the chamber was capped with a glass petri dish (inner diameter 90 mm) containing an untreated 90-mm Whatman No. 1 filter paper, while the other end was likewise covered with a similar petri dish containing the treated filter paper. Immediately after capping both ends of the chamber, 20 non-blood-fed female Culex pipiens mosquitoes were anesthetized with carbon dioxide, and placed into the repellency chamber through the hole in the side of the cylinder via a funnel. The hole was sealed, and the number of mosquitoes on the treated and untreated halves were recorded at 15, 30, 60, 90, 120, and 150 minutes after introduction of the mosquitoes to the chamber. All statistical analysis was performed in R. To determine repellency of a given compound, the number of repelled mosquitoes and the total number of mosquitos the chamber for each trial at a given time point were fit to a beta-binomial distribution to account for overdispersion in the estimated repellency. Because percentage repellency is bound between -100% (completely attracting) and 100% (completely repelling), percentage repellency shown with error bars representing 50% confidence intervals determined from a non-chance-corrected beta-binomial fit to the data, using an inverse link function equal to the psychometric function for the duo-trio test. Statistical significance was determined by nonoverlap of these confidence intervals. Estimates of the proportion of mosquitoes repelled in the chamber was then transformed to percentage repellency, which is expressed as […]

Culex pipiens [2] = assay: Short-term spatial repellency, static air chamber; details: short-term assay, 1 mL of 0.5% solution, dried 15 minutes
Culex pipiens [3] = assay: Long-term repellency, treated filter paper placed in chamber 5 hours after application; details: filter paper placed 5 hours after compound was applied
Procedure: FIG. 5 is a graph showing the repellency observed when 1 mL of each compound was applied to a filter paper placed at the treated end of the repellency chamber 5 hours after compound was applied. FIG. 8 is a graph showing the repellency of various compounds observed when 1 mL of each compound was applied to a filter paper placed at the treated end of the repellency chamber 5 hours after compound was applied. An array of older and newly synthesized carbonates was chosen and tested for repellency activity. Six compounds were screened according to long-term repellency assays and three compounds were screened according to short-term repellency assays. These assays were all conducted using Culex pipiens mosquitoes. The compounds tested are illustrated in Table 1. An array of carbonates was chosen and tested for repellency activity. Some compounds were screened according to long-term repellency assays and some compounds were screened according to short-term repellency assays. These assays were conducted using Culex pipiens mosquitoes or Aedes aegypti mosquitoes.

Structure (SMILES) | short-term repellency (result in words) (Culex pipiens [1]) | other results
Cc1ccc(C(C)C)c(OC(=O)OCC(C)C)c1 [Compound 2d, Isobutyl thymyl carbonate] | slower onset of high repellency; also recorded: final estimated repellency was approximately the same | –
COC(=O)Oc1cc(C)ccc1C(C)C [Compound 4249, Thymyl methyl carbonate] | – | mortality seen in the repellency chamber (Culex pipiens [2]): significant mortality
C=C(C)C1CCC(C)CC1OC(=O)OCC (stereo not shown) [Compound 3a, Ethyl isopulegyl carbonate] | – | long-term repellency (result in words) (Culex pipiens [3]): not able to repel mosquitoes very well at all
CC(C)=CCCC(C)CCOC(=O)OCC(C)C (stereo not shown) [Compound 1d, Citronellyl isobutyl carbonate] | numerically, but not statistically, less repellent than 1a | –
CCOC(=O)OC1CC2CCC1(C)C2(C)C (stereo not shown) [Compound 7a, Bornyl ethyl carbonate] | only modest repellency | –
CCOC(=O)OCCC(C)CCC=C(C)C (stereo not shown) [Compound 1a, Citronellyl ethyl carbonate] | numerically superior out of all the citronellyl carbonates | mosquitoes repelled in short-term repellency assay (Culex pipiens [1]; 1 mL of 0.5% w/v acetone solution on filter paper, assay extending out to 2.5 hours): approximately 90%
CC(C)=CCCC(C)CCOC(=O)Oc1ccccc1 (stereo not shown) [Compound 1f, Citronellyl phenyl carbonate] | weakest repellent effect | –
COC(=O)OCCC(C)CCC=C(C)C (stereo not shown) [Compound 1b, Citronellyl methyl carbonate] | numerically, but not statistically, less repellent than 1a | –
CCOC(=O)OC1C=C(C)C2CC1C2(C)C (stereo not shown) [Compound 4251, Verbenyl ethyl carbonate] | – | mortality seen in the repellency chamber (Culex pipiens [2]): Very minimal amounts of mortality
CCOC(=O)Oc1cc(C)ccc1C(C)C [Compound 2a, Ethyl thymyl carbonate] | final estimated repellency was approximately the same | short-term repellency (result in words) (Culex pipiens [1]; listed as Ethyl thymyl carbonate): excellent short-term repellent
CC(C)=CCCC(C)CCOC(=O)OC(C)C (stereo not shown) [Compound 1c, Citronellyl isopropyl carbonate] | numerically, but not statistically, less repellent than 1a | –
